# Reference: patent publication US20240423982A1 (Eli Lilly and Company, priority 2023, published 2024)
# Test system: new-onset type-1 diabetes patients
# Test: randomized placebo-controlled study of baricitinib 4 mg per day for 48 weeks in new-onset type 1 diabetes
# Format: in vivo, human
# Experimental: Participants: Eligibility criteria included age between 10 and 30 years, diagnosis of type 1 diabetes according to ADA criteria within 100 days of starting study drug, presence of at least one islet autoantibody and either random C-peptide>0.3 pmol/mL or C-peptide>0.2 pmol/mL per during a 2 h MMTT. Exclusion criteria included treatment with other immunomodulatory agents, and clinically significant comorbidities including cytopenias, known malignancy, history of thrombosis or LDL cholesterol>155 mg/dL. All participants received standard diabetes management with a target HbA1c of less than 7% in adults and less than 7.5% in participants less than 18 years of age, in accordance with current ADA recommendations.
# Primary, secondary, and exploratory outcomes: The primary outcome was the average C-peptide during a 2 h MMTT at 48 weeks, calculated as the area under the trapezoidal curve divided by 120 minutes. Secondary outcomes included HbA1c, total daily insulin use, CGM measures from the ambulatory glucose profile. Participants were requested to wear either a Freestyle Libre2 or Dexcom G6 CGM for 14 days at baseline, 12, 24, 48, 72 and 96 weeks. Exploratory mechanistic outcomes included the assessment of basal and cytokine-stimulated phosphorylation of STAT proteins in fresh whole blood, and the frequency of T-cell subsets in PBMC. Samples for these were collected at baseline and 24 weeks.
# [1] = weeks 12 and 24, but not week 48, versus placebo
smiles,measurement,setting,value
"CCS(=O)(=O)N1CC(CC#N)(n2cc(-c3ncnc4[nH]ccc34)cn2)C1 [baricitinib, {1-(ethylsulfonyl)-3-[4-(7H-pyrrolo[2,3-d]pyrimidin-4-yl)-1H-pyrazol-1-yl]azetidin-3-yl}acetonitrile]",tolerability,"4 mg per day orally, 48 weeks",well tolerated
same,glucose coefficient of variation (CGM),"12, 24 and 48 weeks, versus placebo",improved significantly
same,HbA1c,"48 weeks, mean±SEM, placebo 7.4±0.27, p=0.216",7.0%
same,insulin use compared to placebo,"FIG. 1B, over treatment",significantly lower insulin use
same,"lipid profile, liver function or renal function versus placebo","baseline, 12, 24, or 48 weeks",no significant differences
same,time below range <70 mg/dl (<3.9 mmol/L) (CGM),between groups,no significant differences
same,median number of AEs,placebo 3,2
same,SAEs attributed to study medication,total of seven SAEs recorded in both groups,none of which were attributed to study medication
same,median C-peptide during 2 h MMTT,"week 48, 4 mg per day orally, placebo 0.45 (0.13-0.63), p=0.001",0.65 (0.31-0.82) pmol/mL/min
same,daily insulin dose,"week 48, median, placebo 0.48 (0.37-0.64), p=0.004",0.39 (0.22-0.57) U/kg/day
same,C-peptide decline compared to baseline,"week 48, placebo 29.5%, p=0.008",5.5%
same,HbA1c difference between groups,"weeks 12, 24 or 48",did not differ significantly
same,daily insulin requirement versus baseline,weeks 12 and 24,decreased below baseline
same,median C-peptide compared to placebo,weeks 12 and 24,significantly higher
same,percent time above 180 mg/dl (10 mmol/l) (CGM),[1],significantly lower
same,percent time between 70 and 180 mg/dL (3.9 and 10 mmol/L) (CGM),[1],higher
